{"source": "paper PMC11192564", "about": "(Cell metabolism, 2023)", "key": {"Samtor [1]": {"molecular_target": "T1, Samtor (Mus musculus, UniProt Q8BXK4)", "T1 sequence (Q8BXK4 1-403)": "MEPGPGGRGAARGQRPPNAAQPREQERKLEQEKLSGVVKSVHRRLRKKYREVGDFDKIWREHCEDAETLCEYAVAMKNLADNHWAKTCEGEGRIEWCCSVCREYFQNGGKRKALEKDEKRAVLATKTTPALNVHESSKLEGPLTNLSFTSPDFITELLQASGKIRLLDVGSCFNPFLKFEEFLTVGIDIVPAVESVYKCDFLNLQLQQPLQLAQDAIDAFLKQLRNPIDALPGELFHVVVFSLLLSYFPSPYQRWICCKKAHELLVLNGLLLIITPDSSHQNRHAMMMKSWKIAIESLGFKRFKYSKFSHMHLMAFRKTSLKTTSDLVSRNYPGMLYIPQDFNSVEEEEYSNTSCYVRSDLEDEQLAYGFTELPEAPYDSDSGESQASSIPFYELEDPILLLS", "assay": "microscale thermophoresis", "type": "binding"}, "SAMTOR [2]": {"molecular_target": "T2, SAMTOR (Homo sapiens, UniProt Q1RMZ1)", "T2 sequence (Q1RMZ1 1-405)": "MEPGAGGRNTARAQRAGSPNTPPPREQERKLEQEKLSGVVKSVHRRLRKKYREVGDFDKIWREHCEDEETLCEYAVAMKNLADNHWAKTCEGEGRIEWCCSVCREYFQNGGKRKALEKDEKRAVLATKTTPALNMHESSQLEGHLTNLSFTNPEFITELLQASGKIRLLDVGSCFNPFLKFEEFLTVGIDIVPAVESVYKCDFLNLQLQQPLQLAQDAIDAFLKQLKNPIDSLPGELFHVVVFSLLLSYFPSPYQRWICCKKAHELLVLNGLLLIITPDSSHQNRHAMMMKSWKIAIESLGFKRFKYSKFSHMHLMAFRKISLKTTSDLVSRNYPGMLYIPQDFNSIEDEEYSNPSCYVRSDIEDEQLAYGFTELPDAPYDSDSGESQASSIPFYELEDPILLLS", "assay": "microscale thermophoresis", "type": "binding"}}}
{"smiles": "C[S+](CC[C@H](N)C(=O)[O-])C[C@H]1O[C@@H](n2cnc3c(N)ncnc32)[C@H](O)[C@@H]1O", "note": "(some centres unmarked) [SAM]", "values": [{"measurement": "Kd", "setting": "Samtor [1]", "result": "~10", "unit": "µM"}, {"measurement": "Kd", "setting": "SAMTOR [2]", "result": "~7", "unit": "µM"}]}
